Measurements taken from patent US9409037B2, “Enhanced anti-microbial PDT” (Biolitec Pharma Marketing LTD, priority 2010, dated 2016).

Tested on: Staphylococcus aureus
Experiment: Antimicrobial PDT killing of bacteria in calf serum in a flow system
Type: cell-based
Conditions: 20 μM Safranin O in 99% calf serum; 532 nm laser, fluence rate 30 mW/cm^2, continuous irradiation; three passages, flow rate 10 ml/min
Procedure: In a separate test a composition comprising Safranin O was added to calf serum (100% serum) solution containing Staphylococcus aureus ([…]), which is a common component of the micro flora of wounds, resulting in a final concentration of 20 μM Safranin O in 99% calf serum. Irradiation was delivered in a flow system corresponding to FIG. 3 B via a light fiber from a laser, Ceralas G2 (Biolitec AG, Germany) operating at 532 nm and using a fluence rate of 30 mW/cm^2.

## Cc1cc2nc3cc(C)c(N)cc3[n+](-c3ccccc3)c2cc1N.[Cl-] [Safranin O]
  percentage of killing of bacteria: about 99.9%
